Experimental data published in ChEMBL document CHEMBL1146960, “Synthesis and anticancer activity of thiosemicarbazones” (Bioorg Med Chem Lett, 2006).
Blank lines part the entries; values can stand above or below the molecule they belong to.

What was measured:
P388 [1] = experiment: Antitumor activity against P388 cell line at 0.01 umol/L by MTT method; assay type: functional; settings: Mus musculus
SGC-7901 [2] = experiment: Antitumor activity against SGC7901 cell line at 1 umol/L by SRB method; assay type: functional; settings: Homo sapiens
P388 [3] = experiment: Antitumor activity against P388 cell line at 1 umol/L by MTT method; assay type: functional; settings: Mus musculus
SGC-7901 [4] = experiment: Antitumor activity against SGC7901 cell line at 0.1 umol/L by SRB method; assay type: functional; settings: Homo sapiens
P388 [5] = experiment: Antitumor activity against P388 cell line at 0.1 umol/L by MTT method; assay type: functional; settings: Mus musculus
SGC-7901 [6] = experiment: Antitumor activity against SGC7901 cell line at 10 umol/L by SRB method; assay type: functional; settings: Homo sapiens
P388 [7] = experiment: Antitumor activity against P388 cell line at 10 umol/L by MTT method; assay type: functional; settings: Mus musculus
SGC-7901 [8] = experiment: Antitumor activity against SGC7901 cell line at 0.01 umol/L by SRB method; assay type: functional; settings: Homo sapiens
SGC-7901 [9] = experiment: Antitumor activity against SGC7901 cell line at 100 umol/L by SRB method; assay type: functional; settings: Homo sapiens
P388 [10] = experiment: Antitumor activity against P388 cell line at 100 umol/L by MTT method; assay type: functional; settings: Mus musculus
A549 [11] = experiment: Antitumor activity against A549 cell line at 0.1 umol/L by SRB method; assay type: functional; settings: Homo sapiens
A549 [12] = experiment: Antitumor activity against A549 cell line at 10 umol/L by SRB method; assay type: functional; settings: Homo sapiens
A549 [13] = experiment: Antitumor activity against A549 cell line at 1 umol/L by SRB method; assay type: functional; settings: Homo sapiens
SGC-7901 [14] = experiment: Antitumor activity against SGC7901 cell line at 12.5 nmol/L by SRB method; assay type: functional; settings: Homo sapiens
SGC-7901 [15] = experiment: Antitumor activity against SGC7901 cell line by SRB method; assay type: functional, cell-based; settings: Homo sapiens
SGC-7901 [16] = experiment: Antitumor activity against SGC7901 cell line at 50 nmol/L by SRB method; assay type: functional; settings: Homo sapiens
SGC-7901 [17] = experiment: Antitumor activity against SGC7901 cell line at 6.25 nmol/L by SRB method; assay type: functional; settings: Homo sapiens
SGC-7901 [18] = experiment: Antitumor activity against SGC7901 cell line at 25 nmol/L by SRB method; assay type: functional; settings: Homo sapiens

Structure (SMILES): COc1ccc(N/C(S)=N/N=C(/C)c2cccs2)cc1
inhibition at 0.01 µM (P388 [1]): 0%
inhibition at 1 µM (SGC-7901 [2]): 0%
inhibition at 1 µM (P388 [3]): 6.9%
inhibition at 0.1 µM (SGC-7901 [4]): 0%
inhibition at 0.1 µM (P388 [5]): 3.6%
inhibition at 10 µM (SGC-7901 [6]): 29.2%
inhibition at 10 µM (P388 [7]): 5.2%
inhibition at 0.01 µM (SGC-7901 [8]): 0%
inhibition at 100 µM (SGC-7901 [9]): 65.1%
inhibition at 100 µM (P388 [10]): 25.9%

Structure (SMILES): C/C(=N/N=C(\S)N1CCN(c2ccccn2)CC1)c1nccs1
inhibition at 0.1 µM (A549 [11]): 15.6%
inhibition at 10 µM (A549 [12]): 13.6%
inhibition at 1 µM (SGC-7901 [2]): 60.8%
inhibition at 1 µM (P388 [3]): 74.3%
inhibition at 0.1 µM (SGC-7901 [4]): 14.3%
inhibition at 0.1 µM (P388 [5]): 73.5%
inhibition at 10 µM (SGC-7901 [6]): 92.5%
inhibition at 10 µM (P388 [7]): 94.5%
inhibition at 1 µM (A549 [13]): 21.5%

Structure (SMILES): C/C(=N/N=C(\S)Nc1ccc(Cl)cc1)c1cccs1
inhibition at 0.01 µM (P388 [1]): 0%
inhibition at 1 µM (SGC-7901 [2]): 0%
inhibition at 1 µM (P388 [3]): 0%
inhibition at 0.1 µM (SGC-7901 [4]): 0%
inhibition at 0.1 µM (P388 [5]): 0%
inhibition at 10 µM (SGC-7901 [6]): 12.7%
inhibition at 10 µM (P388 [7]): 9.9%
inhibition at 0.01 µM (SGC-7901 [8]): 0%
inhibition at 100 µM (SGC-7901 [9]): 56.7%
inhibition at 100 µM (P388 [10]): 21.6%

Structure (SMILES): CCn1cc(C(=O)O)c(=O)c2cc(F)c(N3CCN(/C(S)=N/N=C(/C)c4ccccc4)CC3)cc21
inhibition at 0.1 µM (A549 [11]): 0%
inhibition at 10 µM (A549 [12]): 63.9%
inhibition at 1 µM (P388 [3]): 24.8%
inhibition at 0.1 µM (P388 [5]): 0%
inhibition at 10 µM (P388 [7]): 100%
inhibition at 1 µM (A549 [13]): 0.8%

Structure (SMILES): C/C(=N/N=C(\S)N1CCN(c2ccccn2)CC1)c1ccc([N+](=O)[O-])cc1
inhibition at 0.1 µM (A549 [11]): 0%
inhibition at 10 µM (A549 [12]): 16.4%
inhibition at 1 µM (P388 [3]): 4.6%
inhibition at 0.1 µM (P388 [5]): 4.6%
inhibition at 10 µM (P388 [7]): 6.4%
inhibition at 1 µM (A549 [13]): 0%

IC50 (SGC-7901 [15]): 0.032 µM
Structure (SMILES): C/C(=N/N=C(\S)N1CCN(c2ccccn2)CC1)c1ncccn1
inhibition at 0.0125 µM (SGC-7901 [14]): 31.7%
inhibition at 0.1 µM (A549 [11]): 12.6%
inhibition at 10 µM (A549 [12]): 79.3%
inhibition at 1 µM (SGC-7901 [2]): 90%
inhibition at 1 µM (P388 [3]): 89.4%
inhibition at 0.05 µM (SGC-7901 [16]): 60.1%
inhibition at 0.00625 µM (SGC-7901 [17]): 18.4%
inhibition at 0.1 µM (SGC-7901 [4]): 81.7%
inhibition at 0.1 µM (P388 [5]): 28.3%
inhibition at 10 µM (SGC-7901 [6]): 90%
inhibition at 10 µM (P388 [7]): 96.5%
inhibition at 1 µM (A549 [13]): 18.5%
inhibition at 0.025 µM (SGC-7901 [18]): 48.4%

Structure (SMILES): C/C(=N/NC(=S)N1CCN(c2ccccn2)CC1)c1ccccn1
inhibition at 0.1 µM (A549 [11]): 24.6%
inhibition at 10 µM (A549 [12]): 100%
inhibition at 1 µM (P388 [3]): 12.8%
inhibition at 0.1 µM (P388 [5]): 13.8%
inhibition at 10 µM (P388 [7]): 100%
inhibition at 1 µM (A549 [13]): 19.7%

Structure (SMILES): C/C(=N/N=C(\S)Nc1ccc(C)cc1)c1cccs1
inhibition at 0.01 µM (P388 [1]): 0%
inhibition at 1 µM (SGC-7901 [2]): 15%
inhibition at 1 µM (P388 [3]): 5.7%
inhibition at 0.1 µM (SGC-7901 [4]): 9.6%
inhibition at 0.1 µM (P388 [5]): 10.8%
inhibition at 10 µM (SGC-7901 [6]): 33.9%
inhibition at 10 µM (P388 [7]): 9.2%
inhibition at 0.01 µM (SGC-7901 [8]): 8.8%
inhibition at 100 µM (SGC-7901 [9]): 67.8%
inhibition at 100 µM (P388 [10]): 8.4%

Structure (SMILES): C/C(=N/N=C(\S)Nc1ccc([N+](=O)[O-])cc1)c1cccs1
inhibition at 0.01 µM (P388 [1]): 10.3%
inhibition at 1 µM (SGC-7901 [2]): 8.3%
inhibition at 1 µM (P388 [3]): 2.1%
inhibition at 0.1 µM (SGC-7901 [4]): 14.5%
inhibition at 0.1 µM (P388 [5]): 3.6%
inhibition at 10 µM (SGC-7901 [6]): 35.7%
inhibition at 10 µM (P388 [7]): 0%
inhibition at 0.01 µM (SGC-7901 [8]): 9.1%
inhibition at 100 µM (SGC-7901 [9]): 51.7%
inhibition at 100 µM (P388 [10]): 8.6%

Structure (SMILES): C/C(=N/N=C(\S)N1CCN(c2ccccn2)CC1)c1ccc(Cl)cc1
inhibition at 0.1 µM (A549 [11]): 0.8%
inhibition at 10 µM (A549 [12]): 0%
inhibition at 1 µM (P388 [3]): 0%
inhibition at 0.1 µM (P388 [5]): 0%
inhibition at 10 µM (P388 [7]): 0%
inhibition at 1 µM (A549 [13]): 0%

Structure (SMILES): C/C(=N/N=C(\S)N1CCN(c2ccccn2)CC1)c1ccc(N)cc1
inhibition at 0.1 µM (A549 [11]): 0%
inhibition at 10 µM (A549 [12]): 46.8%
inhibition at 1 µM (P388 [3]): 4.6%
inhibition at 0.1 µM (P388 [5]): 12.1%
inhibition at 10 µM (P388 [7]): 30.3%
inhibition at 1 µM (A549 [13]): 0%

Structure (SMILES): C/C(=N/N=C(\S)N1CCN(c2ccccn2)CC1)c1ccccc1
inhibition at 0.1 µM (A549 [11]): 0%
inhibition at 10 µM (A549 [12]): 0.8%
inhibition at 1 µM (P388 [3]): 0%
inhibition at 0.1 µM (P388 [5]): 0%
inhibition at 10 µM (P388 [7]): 4.6%
inhibition at 1 µM (A549 [13]): 0%

Structure (SMILES): C/C(=N/N=C(\S)Nc1ccccc1C)c1cccs1
inhibition at 0.01 µM (P388 [1]): 0%
inhibition at 1 µM (SGC-7901 [2]): 5.5%
inhibition at 1 µM (P388 [3]): 0%
inhibition at 0.1 µM (SGC-7901 [4]): 0%
inhibition at 0.1 µM (P388 [5]): 5.9%
inhibition at 10 µM (SGC-7901 [6]): 41.6%
inhibition at 10 µM (P388 [7]): 1.3%
inhibition at 0.01 µM (SGC-7901 [8]): 7.1%
inhibition at 100 µM (SGC-7901 [9]): 73.5%
inhibition at 100 µM (P388 [10]): 91.9%
